Measurements as given in patent publication US5981489A, “Non-aqueous protic peptide formulations” (Alza Corporation, priority 1997, dated 1999).
One block for each compound: values may come before it.

How the values were obtained:
Type in all cases: physicochemical
[1] = Gelation of non-aqueous protic solvent formulations on adding polar aprotic solvent
Text: Thus, these solvents have an anti-gellant effect.

[2] = Stability of goserelin formulations, one month at 37° C., RP-HPLC; settings: for % CONCENTRATION: method called unreliable
Description: (§1) Stability samples were analyzed using RP-HPLC. The area under the curve for the leuprolide peak divided by the sum of the areas under the curve of all peaks gave % purity. [It should be noted that the data for % concentration presented with the % purity data (Examples 6, 8, 9 and 10) are inconclusive. The analysis methods used to determine % concentration in these experiments were unreliable.]
Formulations of 40-45% (w/w) goserelin in either PEG 600 or PG/acetate buffer (30:70) were prepared as described above and placed in polymeric containers. The containers were stored at 37° C. for one month in an incubator. The samples were analyzed using RP-HPLC to determine the chemical stability of the aged formulations.

[3] = Stability of nafarelin formulations, one month at 37° C., RP-HPLC
Description: as §1
Formulations of 15% (w/w) nafarelin in either PEG 600 or propylene glycol were prepared as described above for leuprolide and placed in polymeric containers.
The containers were stored at 37° C. for one month in an incubator.
The samples were analyzed using RP-HPLC to determine the chemical stability of the aged formulations.

[4] = 40-45% (w/w) in vehicle PEG 600, one month at 37° C.
[5] = 40-45% (w/w) in vehicle PG/Acetate Buffer(30:70), one month at 37° C.
[6] = 15% (w/w) in vehicle PEG 600, one month at 37° C.
[7] = 15% (w/w) in vehicle PG, one month at 37° C.

effect of adding polar aprotic solvents such as DMSO on gelation of the formulation [1]: prevents gelation
Compound: calcitonin

% PURITY [2, 4]: 99.3%
% CONCENTRATION [2, 4]: 23.6%
% PURITY [2, 5]: 98.2%
% CONCENTRATION [2, 5]: 49.7%
effect of adding polar aprotic solvents such as DMSO on gelation of the formulation [1]: prevents gelation
Compound: CC(C)C[C@H](NC(=O)[C@@H](COC(C)(C)C)NC(=O)[C@H](Cc1ccc(O)cc1)NC(=O)[C@H](CO)NC(=O)[C@H](Cc1c[nH]c2ccccc12)NC(=O)[C@H](Cc1cnc[nH]1)NC(=O)[C@@H]1CCC(=O)N1)C(=O)N[C@@H](CCCNC(=N)N)C(=O)N1CCC[C@H]1C(=O)NNC(N)=O [goserelin]

% CONCENTRATION [3, 6]: 15.8%
% PURITY [3, 6]: 99.4%
% CONCENTRATION [3, 7]: 12.9%
% PURITY [3, 7]: 99.4%
Compound: CC(C)C[C@H](NC(=O)[C@@H](Cc1ccc2ccccc2c1)NC(=O)[C@H](Cc1ccc(O)cc1)NC(=O)[C@H](CO)NC(=O)[C@H](Cc1c[nH]c2ccccc12)NC(=O)[C@H](Cc1c[nH]cn1)NC(=O)[C@@H]1CCC(=O)N1)C(=O)N[C@@H](CCCNC(=N)N)C(=O)N1CCC[C@H]1C(=O)NCC(N)=O [nafarelin]

effect of adding polar aprotic solvents such as DMSO on gelation of the formulation [1]: prevents gelation
Compound: CCNC(=O)[C@@H]1CCCN1C(=O)[C@H](CCCNC(=N)N)NC(=O)[C@H](CC(C)C)NC(=O)[C@@H](CC(C)C)NC(=O)[C@H](Cc1ccc(O)cc1)NC(=O)[C@H](CO)NC(=O)[C@H](Cc1c[nH]c2ccccc12)NC(=O)[C@H](Cc1c[nH]cn1)NC(=O)[C@@H]1CCC(=O)N1 [leuprolide]
